Laboratory results taken from patent KR20200058863A, “루테인 장용성 고체분산체를 유효성분으로 함유하는 위산보호용 조성물 및 이를 포함하는 경구용 제제” (중앙대학교 산학협력단, priority 2018, dated 2020).
Read-outs that look alike come from different tables or passages of the source.

How the values were obtained:
physchem [1] = settings: ph 1.2 solution
[2] = PXRD crystallinity of lutein and solid dispersions; format: physicochemical; settings: 2θ 5° to 50°, room temperature
[3] = intestinal fluid, pH 6.8; spectra over 24 h
physchem [4] = settings: artificial gastric fluid, pH 1.2
[5] = intestinal condition pH 6.8, 37 ± 0.5 ℃, 100 rpm
[6] = In vitro dissolution in artificial gastric/intestinal fluid and successive pH (USP 29 apparatus 2); format: physicochemical; settings: artificial gastric fluid pH 1.2, 120 min
physchem [7] = settings: artificial gastric fluid, pH 1.2; remark: listed apart in the source

remaining at 12 h (physchem [1]): 14.7%
crystallinity (PXRD peaks) [2]: 다양한 특유의 피크를 갖는 고도의 결정구조
lutein content (pH 1.2, 0 h): 10.31 ± 0.29 mg
lutein ratio (pH 1.2, 0 h): 100%
lutein content (pH 1.2, after 12 h): 1.51 ± 0.03 mg
change of lutein absorbance spectrum [3]: 유의한 변화가 확인되지 않았다
degraded at 2 h (physchem [4]): 70%
change of lutein [5]: 루테인 변화가 나타나지 않았다
acid resistance ([6]; 37 ± 0.5 ℃, 100 rpm): 산저항성을 나타내었으며
lutein detected in dissolution medium ([6]; low solubility): 검출되지 않았다
degraded at 24 h (physchem [7]): ~50%
SMILES: CC1=C[C@H](O)CC(C)(C)[C@H]1/C=C/C(C)=C/C=C/C(C)=C/C=C/C=C(C)/C=C/C=C(C)/C=C/C1=C(C)C[C@@H](O)CC1(C)C [루테인]
